Consider two compounds from ChEMBL document CHEMBL1135113 (Bioorg Med Chem Lett, 2002).

Calls of active or inactive are those of the source. No cut-off for these calls is given here.

The target in assay [1] is T1, Integrin alpha-IIb/beta-3 (Homo sapiens, UniProt P05106+P08514). In words: Selectivity against Integrin alpha-IIb beta-3 receptor versus fibrinogen; Not active. It counts as protein-complex assay.
The target of assay [2] is Integrin alpha-5/beta-1 (Homo sapiens) (UniProt P05556+P08648). Nature of the assay: Cell adhesion activity against alpha5-beta1 integrin. It counts as protein-complex assay.
The target of assay [3] is T2, Integrin alpha-4/beta-1 (Homo sapiens) (UniProt P05556+P13612). In words: Cell adhesion activity against alpha4-beta1 integrin at 10 e-5M (not active). It counts as protein-complex assay.
A further assay concerns the target Integrin alpha-V/beta-3 (Homo sapiens, UniProt P05106+P06756). Nature of the assay: Selectivity against alphaV-beta3 integrin. It counts as protein-complex assay.
The species named for the next assay is Homo sapiens. In words: Efficacy of compound in cell migration of primary human Smooth Muscle Cells (SMC) was determined. It counts as functional.
Assay [4] concerns the target T1, Integrin alpha-IIb/beta-3. Nature of the assay: Selectivity against alpha IIb beta-3 integrin; Not active. It counts as protein-complex assay.
Assay [5] concerns the target T2, Integrin alpha-4/beta-1 (Homo sapiens). Nature of the assay: Cell adhesion activity against alpha4-beta1 integrin at 10e-5 M. It counts as protein-complex assay.

Sequence of Integrin alpha-V/beta-3 (P05106 27-788 limits assumed): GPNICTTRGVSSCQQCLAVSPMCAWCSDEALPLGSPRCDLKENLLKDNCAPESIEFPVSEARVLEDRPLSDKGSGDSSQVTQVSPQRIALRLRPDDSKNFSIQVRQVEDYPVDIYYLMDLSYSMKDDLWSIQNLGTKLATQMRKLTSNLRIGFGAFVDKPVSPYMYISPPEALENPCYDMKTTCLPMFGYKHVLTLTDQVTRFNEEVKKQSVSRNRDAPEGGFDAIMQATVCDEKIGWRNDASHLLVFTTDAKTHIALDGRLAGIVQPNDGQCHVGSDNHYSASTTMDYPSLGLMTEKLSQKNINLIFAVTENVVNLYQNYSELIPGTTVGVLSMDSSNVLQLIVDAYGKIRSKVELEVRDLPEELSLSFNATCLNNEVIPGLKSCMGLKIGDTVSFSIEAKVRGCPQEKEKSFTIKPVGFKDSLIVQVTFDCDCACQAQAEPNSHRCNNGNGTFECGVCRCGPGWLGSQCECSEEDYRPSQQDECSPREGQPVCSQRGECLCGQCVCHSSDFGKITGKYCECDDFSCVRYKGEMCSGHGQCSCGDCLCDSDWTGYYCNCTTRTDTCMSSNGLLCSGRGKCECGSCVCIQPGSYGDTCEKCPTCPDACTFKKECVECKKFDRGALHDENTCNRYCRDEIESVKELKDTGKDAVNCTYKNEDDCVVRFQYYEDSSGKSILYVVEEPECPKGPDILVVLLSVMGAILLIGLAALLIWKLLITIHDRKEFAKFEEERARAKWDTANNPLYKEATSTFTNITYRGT
Sequence of Integrin alpha-V/beta-3 (P06756 31-889 limits assumed): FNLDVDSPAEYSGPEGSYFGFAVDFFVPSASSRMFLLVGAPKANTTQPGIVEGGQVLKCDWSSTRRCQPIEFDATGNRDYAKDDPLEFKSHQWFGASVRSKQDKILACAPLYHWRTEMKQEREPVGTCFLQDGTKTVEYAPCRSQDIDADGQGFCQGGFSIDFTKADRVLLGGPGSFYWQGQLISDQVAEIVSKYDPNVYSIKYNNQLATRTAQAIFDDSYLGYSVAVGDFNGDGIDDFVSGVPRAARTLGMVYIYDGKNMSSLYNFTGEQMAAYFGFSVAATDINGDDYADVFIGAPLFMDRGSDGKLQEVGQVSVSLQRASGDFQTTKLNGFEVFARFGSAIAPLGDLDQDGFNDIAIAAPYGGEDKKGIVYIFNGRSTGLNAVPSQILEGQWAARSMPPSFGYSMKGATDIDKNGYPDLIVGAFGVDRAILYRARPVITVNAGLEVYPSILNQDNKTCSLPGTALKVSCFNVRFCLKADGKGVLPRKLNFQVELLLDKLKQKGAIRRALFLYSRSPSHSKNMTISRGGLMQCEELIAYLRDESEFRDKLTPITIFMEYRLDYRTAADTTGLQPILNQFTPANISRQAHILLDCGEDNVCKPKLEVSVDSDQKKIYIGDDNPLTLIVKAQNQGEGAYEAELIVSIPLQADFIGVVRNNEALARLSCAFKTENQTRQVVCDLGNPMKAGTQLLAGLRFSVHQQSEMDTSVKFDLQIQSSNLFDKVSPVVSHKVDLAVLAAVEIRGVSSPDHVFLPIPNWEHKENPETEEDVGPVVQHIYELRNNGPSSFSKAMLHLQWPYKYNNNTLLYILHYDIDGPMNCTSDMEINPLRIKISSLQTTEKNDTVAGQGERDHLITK
Sequence of Integrin alpha-V/beta-3 (P06756 891-1048 limits assumed): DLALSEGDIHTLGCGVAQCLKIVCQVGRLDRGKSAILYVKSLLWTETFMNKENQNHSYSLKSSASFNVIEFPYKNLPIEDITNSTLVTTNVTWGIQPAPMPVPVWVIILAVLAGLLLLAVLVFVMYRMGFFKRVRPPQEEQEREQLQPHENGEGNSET
T1 sequence (P05106 27-788 limits assumed): as the sequence (P05106 27-788 limits assumed) above
T1 sequence (P08514 32-887 limits assumed): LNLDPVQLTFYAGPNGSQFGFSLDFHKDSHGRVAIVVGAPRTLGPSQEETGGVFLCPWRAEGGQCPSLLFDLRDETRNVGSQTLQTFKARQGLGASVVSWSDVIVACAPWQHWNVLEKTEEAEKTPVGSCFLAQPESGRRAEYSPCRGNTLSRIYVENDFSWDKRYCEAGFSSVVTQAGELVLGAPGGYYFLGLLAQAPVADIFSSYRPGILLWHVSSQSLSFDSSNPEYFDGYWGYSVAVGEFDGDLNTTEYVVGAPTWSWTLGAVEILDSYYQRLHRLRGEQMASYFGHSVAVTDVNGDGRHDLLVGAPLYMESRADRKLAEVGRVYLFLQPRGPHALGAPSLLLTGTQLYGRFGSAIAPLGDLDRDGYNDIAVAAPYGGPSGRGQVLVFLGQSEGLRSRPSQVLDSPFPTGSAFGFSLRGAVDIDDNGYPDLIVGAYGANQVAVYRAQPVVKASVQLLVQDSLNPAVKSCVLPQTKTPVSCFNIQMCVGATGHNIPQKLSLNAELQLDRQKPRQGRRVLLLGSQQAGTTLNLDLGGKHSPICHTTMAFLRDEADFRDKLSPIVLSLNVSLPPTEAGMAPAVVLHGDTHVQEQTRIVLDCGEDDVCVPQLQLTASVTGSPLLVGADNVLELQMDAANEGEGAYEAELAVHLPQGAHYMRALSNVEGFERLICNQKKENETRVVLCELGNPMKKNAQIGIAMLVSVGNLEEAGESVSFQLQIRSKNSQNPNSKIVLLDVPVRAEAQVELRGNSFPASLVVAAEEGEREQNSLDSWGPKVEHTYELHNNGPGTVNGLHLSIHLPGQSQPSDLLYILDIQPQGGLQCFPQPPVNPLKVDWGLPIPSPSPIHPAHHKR
T1 sequence (P08514 891-1039 limits assumed): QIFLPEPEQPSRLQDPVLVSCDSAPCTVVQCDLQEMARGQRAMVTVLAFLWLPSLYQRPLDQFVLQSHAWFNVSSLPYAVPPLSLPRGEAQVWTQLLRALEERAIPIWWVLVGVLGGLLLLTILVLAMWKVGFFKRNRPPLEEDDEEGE

Turning to `O=C(CNC(=O)c1cnc(NC(=O)NCc2ccccc2)o1)NC[C@H](NC(=O)OCc1ccccc1)C(=O)O`, the IC50 result in assay [1] is “Not Active”; against Integrin alpha-V/beta-3, 0.0018 µM; in the assay listed under Homo sapiens, 0.5 µM. Besides, the inhibition result in assay [2] and in assay [3] was “inactive” throughout.

As to `O=C(CNC(=O)c1ccc(NC(=O)NCc2ccccc2)o1)NC[C@H](NC(=O)OCc1ccccc1)C(=O)O`, the figures for the IC50 result (in assay [4]; against Integrin alpha-V/beta-3; in the assay filed under Homo sapiens) were “Not Active”, 0.0004 µM and 1.2 µM, respectively. The inhibition result in assay [2] is “inactive”. The compound also came in with an inhibition in assay [5] of 2%.
